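Briefly, cells in 96-well plates were exposed to five compound concentrations for 48 h, and endpoints were estimated by linear interpolation. TGI denotes the concentration required for complete inhibition of growth.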
Key:
Assay in all cases: NCI-60 cell line screen, 48 h
[1] = test system: EKVX NSCLC
[2] = test system: CAKI-1 renal
[3] = test system: OVCAR-8 ovarian
[4] = test system: TK-10 renal
[5] = test system: HCT-15 colon
[6] = test system: M14 melanoma
[7] = test system: SF-268 CNS
[8] = test system: U251 CNS
[9] = test system: HOP-62 NSCLC
[10] = test system: OVCAR-3 ovarian

Row | SMILES | TGI [1] [µM] | TGI [2] [µM] | TGI [3] [µM] | TGI [4] [µM] | TGI [5] [µM] | TGI [6] [µM] | TGI [7] [µM] | TGI [8] [µM] | TGI [9] [µM] | TGI [10] [µM]
1 | CC1CCN(c2cc(-c3cc4ccccc4o3)oc(=O)c2C#N)CC1 | > 100 | > 100 | > 100 | > 100 | > 100 | > 100 | > 100 | > 100 |  | 
2 | CC1=NN(C(=O)c2ccc(C)cc2)C(=O)C1N=Nc1ccccc1C(=O)O (stereo unspecified) | > 100 | > 100 | > 100 |  | > 100 |  | > 100 | > 100 | > 100 | > 100
3 | O=C1Nc2ccccc2C1S(=O)(=O)c1ccccc1 (stereo unspecified) | > 100 | > 100 | > 100 | > 100 | > 100 | > 100 | > 100 | > 100 | > 100 | > 100
4 | Nc1ncc(Sc2ccccc2C(=O)O)s1 | > 100 | > 100 | > 100 | > 100 | > 100 | > 100 | > 100 | > 100 | > 100 | > 100
5 | C/C(=N\Nc1nc2ccccc2n1C)c1ccc2ccccc2n1 | 4.3 | 4.51 | > 100 | 34 | > 75.7 | 4.91 | 19.2 | > 43.6 | 18.2 | 0.213
6 | Clc1ccc(Cn2cc(/C=N/n3cnnc3)c3ccccc32)cc1 | > 100 | > 100 | > 100 | 28.7 | > 100 | > 100 | > 100 | > 100 | > 100 | > 100
7 | COc1ccc2c(C(=O)c3c(C)n(CCN4CCOCC4)c4ccccc34)cccc2c1 | > 100 | > 100 | 59.4 | > 100 | > 100 | 87.7 | 55.4 | 52.2 | > 100 | 29.6
8 | CC(C)(CC1(C)NC(=O)NC1=O)OCc1ccccc1 (stereo unspecified) | > 100 | > 100 | > 100 | > 100 | > 100 | > 100 | > 100 | > 100 | > 100 | > 100
9 | COc1cccc2c1[C@H]1OC(=O)NC1CCCCC2 (stereo partly specified) | > 100 | > 100 | > 100 | > 100 | > 100 | > 100 | > 100 | > 100 | > 100 | > 100
10 | C=C1C(=O)O[C@@H]2[C@H]1C[C@H](I)[C@@]1(C)CC[C@H](O1)[C@](C)(I)CCCC(C)[C@@H]2O (stereo partly specified) | 22.9 | 4.19 | 8.12 | 3.57 | 4.57 | 19.4 | 27.2 | 20 | 35.2 | 8.09
11 | O[C@]12c3ccccc3C1CCCCC2N1CCOCC1 (stereo partly specified) | > 100 |  | > 100 | > 100 | > 100 | > 100 | > 100 | > 100 | > 100 | 
12 | CO/C(=N\N=C(/c1ccccc1)C(F)(F)F)c1ccncc1 |  | > 100 | > 100 |  | > 100 | > 100 |  | > 100 | > 100 | > 100
13 | Cn1cnnc1SC(F)(F)c1nc2ccccc2o1 |  | > 100 | > 100 | > 100 | > 100 | > 100 | > 100 | > 100 | > 100 | > 100
14 | CC(=O)Nc1sccc1S(=O)(=O)c1ccc(Cl)cc1 | > 100 | > 100 | > 100 | > 100 | > 100 | > 100 | > 100 | > 100 |  | > 100
15 | COC(=O)c1ccccc1/C=C1\Cc2ccc3ccccc3c2C1C (stereo unspecified) | > 100 | > 100 | > 100 | > 100 | > 100 | > 100 | > 100 | > 100 |  | > 100
16 | CON(C)C(=O)C(C)NC(=O)OC(C)(C)C (stereo unspecified) | > 100 |  | > 100 | > 100 | > 100 | > 100 | > 100 | > 100 | > 100 | > 100
17 | O=C([O-])C1([n+]2c(-c3ccccc3)cc(-c3ccccc3)cc2-c2ccccc2)CC1 | > 100 |  | > 100 | > 100 | > 100 | > 100 | > 100 | > 100 | > 100 | > 100

Source: PubChem BioAssay (NCI)
